PubChem BioAssay (NCI)
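Values below derive from 48-hour exposures of cells grown in 96-well plates, with endpoints linearly interpolated between the two concentrations bracketing the appropriate inhibition level. GI50 is the concentration that inhibits growth by half. Definition used: TGI = concentration required for complete inhibition of growth.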

Key:
Assay in all cases: NCI-60 cell line screen, 48 h
[1] = system: BT-549 breast
[2] = system: CCRF-CEM leukemia
[3] = system: HT29 colon
[4] = system: M14 melanoma
[5] = system: MCF7 breast
[6] = system: OVCAR-8 ovarian
[7] = system: SF-539 CNS
[8] = system: SK-MEL-28 melanoma
[9] = system: SK-OV-3 ovarian

`COc1cc2cc(Oc3ccc(NC(=O)Nc4ccc(Cl)c(C(F)(F)F)c4)cc3)c(C)nc2cc1OCCN1CCOCC1` gave a GI50 [1] of 2.63 µM, a TGI [1] of 9.33 µM and a GI50 [2] of 1.45 µM. For the same compound, the TGI [2] was over 100 µM, the GI50 [3] was 2.57 µM and the TGI [3] was 11.2 µM. For the same compound, the GI50 [4] was 1.52 µM, the TGI [4] was 3.45 µM and the GI50 [5] was 1.26 µM. It also gave a TGI [5] of 3.33 µM, a GI50 [6] of 2.67 µM and a TGI [6] of over 100 µM. It also gave a GI50 [7] of 1.68 µM, a TGI [7] of 3.26 µM and a GI50 [8] of 1.55 µM. It also gave a TGI [8] of 3.12 µM, a GI50 [9] of 3.34 µM and a TGI [9] of 17.5 µM.
In the case of `CCOC1Oc2ccc(C)cc2C(=O)/C1=C\Nc1ccc(C(N)=O)cc1` (stereo unspecified), the GI50 [1] is reported as 15.5 µM, the TGI [1] is reported as 62.9 µM and the GI50 [2] is reported as 20.3 µM. For the same compound, the TGI [2] was 65.3 µM, the GI50 [3] was 37.5 µM and the TGI [3] was over 100 µM. It also gave a GI50 [4] of 17.2 µM, a TGI [4] of 33.4 µM and a GI50 [5] of 25 µM. The TGI [5] was over 100 µM, the GI50 [6] was 17.7 µM and the TGI [6] was 40.3 µM. It also gave a GI50 [7] of 18.4 µM, a TGI [7] of 53.2 µM and a GI50 [8] of 51.7 µM. It also gave a TGI [8] of over 100 µM, a GI50 [9] of 21.1 µM and a TGI [9] of over 100 µM.
With `N#CSC1CCCCNC1=O` (stereo unspecified) the TGI [1] was 21.5 µM, the TGI [2] was 34.8 µM and the TGI [3] was 26.5 µM. For the same compound, the TGI [4] was 39.3 µM, the TGI [5] was 18.3 µM and the TGI [6] was 33.6 µM. For the same compound, the TGI [7] was 26.5 µM, the TGI [8] was 28.1 µM and the TGI [9] was 21.9 µM.
`CS(=O)(=O)CCNCc1ccc(-c2ccc3ncnc(Nc4ccc(OCc5ccccc5)cc4)c3c2)o1` showed a GI50 [1] of 5.85 µM, a TGI [1] of 17.5 µM and a GI50 [2] of 0.631 µM. For the same compound, the TGI [2] was over 15.6 µM, the GI50 [3] was 3.33 µM and the TGI [3] was 13.5 µM. It also gave a GI50 [4] of 4.89 µM, a TGI [4] of 9.74 µM and a GI50 [5] of 2.84 µM. The TGI [5] was over 17.7 µM, the GI50 [6] was 8.73 µM and the TGI [6] was over 25 µM. The GI50 [7] was 4.91 µM, the TGI [7] was 11 µM and the GI50 [8] was 4.04 µM. It also gave a TGI [8] of 7.83 µM, a GI50 [9] of 0.401 µM and a TGI [9] of over 25 µM.
Work on `CCN(CC)CCCC(C)Nc1c2ccc(Cl)cc2nc2ccc(O)cc12` (stereo unspecified) yielded a GI50 [1] of 5.38 µM, a TGI [1] of 18.3 µM and a GI50 [2] of 3.48 µM. The TGI [2] was 28.9 µM, the GI50 [3] was 1.22 µM and the TGI [3] was 5.39 µM. For the same compound, the GI50 [4] was 1.56 µM, the TGI [4] was 2.99 µM and the GI50 [5] was 1.4 µM. For the same compound, the TGI [5] was 5.48 µM, the GI50 [6] was 1.73 µM and the TGI [6] was 11.7 µM. The GI50 [7] was 1.63 µM, the TGI [7] was 3.14 µM and the GI50 [8] was 1.6 µM. It also gave a TGI [8] of 2.98 µM, a GI50 [9] of 3.12 µM and a TGI [9] of 16 µM.
